The structures appear in SMILES notation.

The assay concerns the target T1, Human M4 (Homo sapiens, UniProt P08173).
T1 construct: expressed in transfected cells
T1 sequence (P08173 1-479): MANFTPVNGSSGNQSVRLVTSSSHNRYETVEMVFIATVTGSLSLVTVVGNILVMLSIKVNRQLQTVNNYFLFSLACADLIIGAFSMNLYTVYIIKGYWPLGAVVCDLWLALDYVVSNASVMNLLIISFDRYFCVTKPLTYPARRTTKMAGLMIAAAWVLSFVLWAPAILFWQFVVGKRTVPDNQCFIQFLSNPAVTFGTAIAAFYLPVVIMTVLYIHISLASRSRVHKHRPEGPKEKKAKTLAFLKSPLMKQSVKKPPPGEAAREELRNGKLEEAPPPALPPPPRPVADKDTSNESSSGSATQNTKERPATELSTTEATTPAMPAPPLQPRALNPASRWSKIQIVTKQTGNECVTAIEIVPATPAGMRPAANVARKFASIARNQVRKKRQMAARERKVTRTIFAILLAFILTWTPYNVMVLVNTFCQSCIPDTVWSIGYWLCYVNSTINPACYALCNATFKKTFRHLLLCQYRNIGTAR
The assay is described as follows: mAChR M4 cell-based functional assay (calcium flux, potentiation of EC20 acetylcholine response), hM4-Gqi5 CHO-K1 cells. The conditions noted are these: for Emax at 30 µM: CHO-K1, % ACh maximum at 30 μM, human M4, read-out: Emax; for EC50: hM4-Gqi5 CHO-K1 cells, calcium flux, PAM of EC20 acetylcholine, read-out: Human M4 EC50. On the procedure:
Human and rat M4 cDNAs, along with the chimeric G protein Gqi5, were transfected into Chinese hamster ovary (CHO-K1) cells purchased from the American Type Culture Collection using Lipofectamine2000. hM4-Gqi5 cells were grown in Ham's F-12 medium containing 10% heat-inactivated fetal bovine serum (FBS), 20 mM HEPES, 50 μg/mL G418 sulfate, and 500 μg/mL Hygromycin B. rM4-Gqi5 cells were grown in DMEM containing 10% heat-inactivated FBS, 20 mM HEPES, 400 μg/mL G418 sulfate, and 500 μg/mL Hygromycin B.
For high throughput measurement of agonist-evoked increases in intracellular calcium, CHO-K1 cells stably expressing muscarinic receptors were plated in growth medium lacking G418 and hygromycin at 15,000 cells/20 μL/well in Greiner 384-well black-walled, tissue culture (TC)-treated, clear-bottom plates (VWR). Cells were incubated overnight at 37° C. and 5% CO2. The next day, cells were washed using an ELX 405 (BioTek) with assay buffer; the final volume was then aspirated to 20 μL. Next, 20 μL of a 2.3 μM stock of Fluo-4/acetoxymethyl ester (Invitrogen, Carlsbad, CA), prepared as a 2.3 mM stock in DMSO and mixed in a 1:1 ratio with 10% (w/v) Pluronic F-127 and diluted in assay buffer, was added to the wells and the cell plates were incubated for 50 min at 37° C. and 5% CO2. Dye was removed by washing with the ELX 405 and the final volume was aspirated to 20 μL. Compound master plates were formatted in an 11 point concentration-response curve (CRC) format (1:3 dilutions) in 100% DMSO with a starting concentration of 10 mM using a BRAVO liquid handler (Agilent). Test compound CRCs were then transferred to daughter plates (240 nL) using the Echo acoustic plate reformatter (Labcyte, Sunnyvale, CA) and then diluted into assay buffer (40 μL) to a 2× stock using a Thermo Fisher Combi (Thermo Fisher Scientific, Waltham, MA).
Calcium flux was measured using the Functional Drug Screening System (FDSS) 6000 or 7000 (Hamamatsu Corporation, Tokyo, Japan) as an increase in the fluorescent static ratio. Compounds were applied to cells (20 μL, 2×) using the automated system of the FDSS at 2-4 seconds into the protocol and the data were collected at 1 Hz. At 144 seconds, 10 μL of an EC20 concentration of the muscarinic receptor agonist acetylcholine was added (5×), followed by the addition of 12 μL of an EC80 concentration of acetylcholine at the 230 second time point (5×). Agonist activity was analyzed as a concentration-dependent increase in calcium mobilization upon compound addition. Positive allosteric modulator activity was analyzed as a concentration-dependent increase in the EC20 acetylcholine response. Antagonist activity was analyzed as a concentration-dependent decrease in the EC80 acetylcholine response. Concentration-response curves were generated using a four-parameter logistical equation in XLFit curve fitting software (IDBS, Bridgewater, NJ) for Excel (Microsoft, Redmond, WA) or Prism (GraphPad Software, Inc., San Diego, CA).
Compounds were synthesized as described above. Activity (EC50 and Emax) was determined in the mAChR M4 cell-based functional assay as described above and the data are shown in Tables 2-4. The compound number corresponds to the compound numbers used in Table 1.

For the molecule `Cc1c(N2CCc3ncc(-c4ccc(F)nc4)cc3C2)nn2cnnc2c1C` [Compound 42, 6-(7,8-dimethyl-[1,2,4]triazolo[4,3-b]pyridazin-6-yl)-3-(6-fluoro-3-pyridyl)-7,8-dihydro-5H-1,6-naphthyridine], the Emax at 30 µM was 94% and the EC50 worked out at 217 nM. For `COc1ccc(-c2cnc3c(c2)CN(c2nn4cnnc4c(C)c2C)CC3)cn1` [Compound 43, 6-(7,8-dimethyl-[1,2,4]triazolo[4,3-b]pyridazin-6-yl)-3-(6-methoxy-3-pyridyl)-7,8-dihydro-5H-1,6-naphthyridine], the Emax at 30 µM came out at 94% and the EC50 is 182 nM. For the molecule `Cc1c(N2CCc3ncc(-c4cccnc4)cc3C2)nn2cnnc2c1C` [Compound 44, 6-(7,8-dimethyl-[1,2,4]triazolo[4,3-b]pyridazin-6-yl)-3-(3-pyridyl)-7,8-dihydro-5H-1,6-naphthyridine], the Emax at 30 µM was 92% and the EC50 is 147 nM.

On to `Cc1c(N2CCc3ncc(Nc4cc(Cl)c(F)cc4F)cc3C2)nn2cnnc2c1C` [Compound 45, N-(5-chloro-2,4-difluoro-phenyl)-6-(7,8-dimethyl-[1,2,4]triazolo[4,3-b]pyridazin-6-yl)-7,8-dihydro-5H-1,6-naphthyridin-3-amine], for which the Emax at 30 µM turned out to be 71% and the EC50 amounted to 271 nM. With `Cc1c(N2CCc3ncc(Nc4c(F)cccc4C#N)cc3C2)nn2cnnc2c1C` [Compound 46, 2-[[6-(7,8-dimethyl-[1,2,4]triazolo[4,3-b]pyridazin-6-yl)-7,8-dihydro-5H-1,6-naphthyridin-3-yl]amino]-3-fluoro-benzonitrile], the Emax at 30 µM is 64% and the EC50 stood at 611 nM. In the case of `Cc1c(N2CCc3ncc(Nc4c(F)cccc4F)cc3C2)nn2cnnc2c1C` [Compound 47, N-(2,6-difluorophenyl)-6-(7,8-dimethyl-[1,2,4]triazolo[4,3-b]pyridazin-6-yl)-7,8-dihydro-5H-1,6-naphthyridin-3-amine], the Emax at 30 µM was 80% and the EC50 came out at 92.1 nM. As to `Cc1ccc(Nc2cnc3c(c2)CN(c2nn4cnnc4c(C)c2C)CC3)c(F)c1` [Compound 48, 6-(7,8-dimethyl-[1,2,4]triazolo[4,3-b]pyridazin-6-yl)-N-(2-fluoro-4-methyl-phenyl)-7,8-dihydro-5H-1,6-naphthyridin-3-amine], the Emax at 30 µM stood at 80% and the EC50 is 147 nM.

For `Cc1c(N2CCc3ncc(Nc4cccc(F)c4F)cc3C2)nn2cnnc2c1C` [Compound 49, N-(2,3-difluorophenyl)-6-(7,8-dimethyl-[1,2,4]triazolo[4,3-b]pyridazin-6-yl)-7,8-dihydro-5H-1,6-naphthyridin-3-amine], the Emax at 30 µM was 82% and the EC50 worked out at 82.4 nM.

Consider `Cc1c(N2CCc3ncc(Nc4ccccc4Cl)cc3C2)nn2cnnc2c1C` [Compound 50, N-(2-chlorophenyl)-6-(7,8-dimethyl-[1,2,4]triazolo[4,3-b]pyridazin-6-yl)-7,8-dihydro-5H-1,6-naphthyridin-3-amine], for which the Emax at 30 µM was determined as 85% and the EC50 was determined as 211 nM.

For `Cc1c(N2CCc3ncc(Nc4ccccc4N(C)C)cc3C2)nn2cnnc2c1C` [Compound 51, N1-[6-(7,8-dimethyl-[1,2,4]triazolo[4,3-b]pyridazin-6-yl)-7,8-dihydro-5H-1,6-naphthyridin-3-yl]-N2,N2-dimethyl-benzene-1,2-diamine], the maximal response (Emax) at 30 µM turned out to be 67% and the EC50 was found to be 402 nM. In the same order, the values of `Cc1c(N2CCc3ncc(Nc4ccccc4C#N)cc3C2)nn2cnnc2c1C` [Compound 52, 2-[[6-(7,8-dimethyl-[1,2,4]triazolo[4,3-b]pyridazin-6-yl)-7,8-dihydro-5H-1,6-naphthyridin-3-yl]amino]benzonitrile] are 76% and 381 nM. In the case of `Cc1ccccc1Nc1cnc2c(c1)CN(c1nn3cnnc3c(C)c1C)CC2` [Compound 53, 6-(7,8-dimethyl-[1,2,4]triazolo[4,3-b]pyridazin-6-yl)-N-(o-tolyl)-7,8-dihydro-5H-1,6-naphthyridin-3-amine], the Emax at 30 µM was 91% and the EC50 is 86.1 nM.

With `COc1ccccc1Nc1cnc2c(c1)CN(c1nn3cnnc3c(C)c1C)CC2` [Compound 54, 6-(7,8-dimethyl-[1,2,4]triazolo[4,3-b]pyridazin-6-yl)-N-(2-methoxyphenyl)-7,8-dihydro-5H-1,6-naphthyridin-3-amine], the maximum response (Emax) at 30 µM was determined as 90% and the EC50 worked out at 152 nM. Turning to `CSc1ccccc1Nc1cnc2c(c1)CN(c1nn3cnnc3c(C)c1C)CC2` [Compound 55, 6-(7,8-dimethyl-[1,2,4]triazolo[4,3-b]pyridazin-6-yl)-N-(2-methylsulfanylphenyl)-7,8-dihydro-5H-1,6-naphthyridin-3-amine], the Emax at 30 µM was determined as 85% and the EC50 came to 241 nM. As to `Cc1c(N2CCc3ncc(C(=O)N4CCCC4)cc3C2)nn2cnnc2c1C` [Compound 56, [6-(7,8-dimethyl-[1,2,4]triazolo[4,3-b]pyridazin-6-yl)-7,8-dihydro-5H-1,6-naphthyridin-3-yl]-pyrrolidin-1-yl-methanone], the Emax at 30 µM turned out to be 91%.

For `Cc1c(N2CCc3ncc(C(=O)NC4CC4)cc3C2)nn2cnnc2c1C` [Compound 57, N-cyclopropyl-6-(7,8-dimethyl-[1,2,4]triazolo[4,3-b]pyridazin-6-yl)-7,8-dihydro-5H-1,6-naphthyridine-3-carboxamide], the Emax at 30 µM came out at 60% and the EC50 is 7750 nM. In the case of `Cc1c(N2CCc3ncc(C(=O)N4CCOCC4)cc3C2)nn2cnnc2c1C` [Compound 58, [6-(7,8-dimethyl-[1,2,4]triazolo[4,3-b]pyridazin-6-yl)-7,8-dihydro-5H-1,6-naphthyridin-3-yl]-morpholino-methanone], the maximal response (Emax) at 30 µM is 51%. For the molecule `Cc1c(N2CCc3ncc(C(=O)Nc4ccccc4F)cc3C2)nn2cnnc2c1C` [Compound 59, 6-(7,8-dimethyl-[1,2,4]triazolo[4,3-b]pyridazin-6-yl)-N-(2-fluorophenyl)-7,8-dihydro-5H-1,6-naphthyridine-3-carboxamide], the maximal response (Emax) at 30 µM was 89% and the EC50 came to 695 nM. On to `Cc1ncc(-c2cnc3c(c2)CN(c2nn4cnnc4c(C)c2C)CC3)s1` [Compound 60, 5-[6-(7,8-dimethyl-[1,2,4]triazolo[4,3-b]pyridazin-6-yl)-7,8-dihydro-5H-1,6-naphthyridin-3-yl]-2-methyl-thiazole], for which the Emax at 30 µM stood at 82% and the EC50 turned out to be 180 nM. For `Cc1nc(C)c(-c2cnc3c(c2)CN(c2nn4cnnc4c(C)c2C)CC3)s1` [Compound 61, 5-[6-(7,8-dimethyl-[1,2,4]triazolo[4,3-b]pyridazin-6-yl)-7,8-dihydro-5H-1,6-naphthyridin-3-yl]-2,4-dimethyl-thiazole], the Emax at 30 µM was 89% and the EC50 is 171 nM. In the same order, the values of `Cc1c(N2CCc3ncc(C(C)(C)O)cc3C2)nn2cnnc2c1C` [Compound 62, 2-[6-(7,8-Dimethyl-[1,2,4]triazolo[4,3-b]pyridazin-6-yl)-7,8-dihydro-5H-1,6-naphthyridin-3-yl]propan-2-ol] are 108% and 92.9 nM.

The values are drawn from patent US20250002507A1, “7,8-DIHYDRO-5H-1,6-NAPHTHYRIDINE DERIVATIVES AS POSITIVE ALLOSTERIC MODULATORS OF THE MUSCARINIC ACETYLCHOLINE RECEPTOR M4 FOR TREATING NEUROLOGICAL AND PSYCHIATRIC DISORDERS” (Vanderbilt University, priority 2021, published 2025).
